In patent EP4563571A1, “PRMT5 INHIBITORS” (Beijing Earthwise Technology Co., Ltd., priority 2022, dated 2024):

These compounds were tested on HCT116^MTAP Deletion cells (assay: Anti-proliferation assay on cells (Cell-Titer Glo, 10 days)). Conditions: 240 h, HCT116^MTAP Deletion cells, 10 days incubation, CTG readout; read-out: HCT116^MTAP Deletion GI50.
Assay type: cell-based
Method: HCT116^MTAP Deletion cells were from Pharmaron (China); HCT116 cells were from ATCC; McCoy's 5A medium was purchased from Invitrogen (USA); penicillin-streptomycin and fetal bovine serum were purchased from Gibco (USA); a 384-well plate was purchased from PerkinElmer (USA); and Cell-Titer Glo reagent was purchased from Promega (USA).
Compound dissolution: All the compounds were dissolved in dimethyl sulfoxide (DMSO) and then stored. The compounds were stored at room temperature in a dry condition for 3 months for short term storage or at -20 °C for long term storage.
Cell culture and passaging
The cells were cultured strictly in accordance with ATCC requirements. The cell culture medium (McCoy's 5A medium + 10% fetal bovine serum + 1% penicillin + streptomycin) was transferred to a 15 mL centrifuge tube and centrifuged at 1000 rpm for 5 min. The supernatant was removed. The cells were resuspended with complete culture medium, inoculated into a culture dish at the required density, and cultured in an incubator at 37 °C, 95% humid air, and 5% carbon dioxide. The culture medium was replenished or the cells were passaged every 2-3 days depending on the cell growth condition.
Cell proliferation activity assay
When the confluency of cells in the culture dish reached about 90%, the cells were washed twice with PBS, and then treated with trypsin to become single cells. The cells were counted, and 40µl of the cells was inoculated into each well of a 384-well plate (50 cells/well). The plate was equilibrated at 37 °C and 5% carbon dioxide for 10 to 15 minutes. The compounds were injected into the 384-well plate using Echo550, and positive control and negative control (0.1% DMSO) were set up. Each compound was subjected to a 3-fold dilution, resulting in 10 concentration gradients, in duplicate, and the content of DMSO was 0.1%. The 384-well plate was incubated in a cell culture incubator for 10 days.
Then, 40 µl of cell proliferation assay reagent (CTG) was added to the 384-well plate, and the plate was shaken to mix well. Then, the 384-well plate was incubated at 37 °C and 5% carbon dioxide in the dark for 30 minutes. The data were read using the Envision multifunctional microplate reader. […] According to the different drug concentrations and their corresponding inhibition rates, the GI50 curve was drawn using GraphPad 8.0 software. The data were analyzed, and the final IC50 value was obtained.

Compound | GI50 [nM]
COc1ncc(NC(=O)C(=O)N(C)C2COCc3cc(C4=CCOCC4)ccc32)cc1C(N)=O (centres unmarked) [Example 166] | 100 to 1000
CC(C)N(C(=O)C(=O)Nc1cnc(N)c2c1cnn2C)C1COCc2cc(C(F)(F)F)ccc21 (centres unmarked) [Example 96] | 10 to 100
CCC(C)N(Cc1ccc(C(F)(F)F)cn1)C(=O)C(=O)Nc1cnc(N)c(C2CC2)c1 (centres unmarked) [Example 78] | 100 to 1000
CN(C(=O)C(=O)Nc1cnc(N)c2c1cnn2C)C1CCN(c2ccccc2)C1 (centres unmarked) [Example 130] | 100 to 1000
COC(=O)N1CC=C(c2ccc(CN(C(=O)C(=O)Nc3cnc(N)c(C)c3)[C@H](C)c3ncccn3)nc2)CC1 [Example 84] | 10 to 100
CN(C(=O)C(=O)Nc1cnc(N)c2c1cnn2C)C1COc2cc(S(C)(=O)=O)ccc21 (centres unmarked) [Example 189] | 10 to 100
CC(C)N(C(=O)C(=O)Nc1cnc(N)c2c1cnn2C)C1COc2cc(C(F)(F)F)ccc21 (centres unmarked) [Example 116] | 10 to 100
Cc1cc(-c2ccc3c(c2)COCC3N(C)C(=O)C(=O)Nc2cnc(N)c3c2cnn3C)on1 (centres unmarked) [Example 179] | 10 to 100
CCC(C)N(Cc1ccc(Cl)cn1)C(=O)C(=O)Nc1cnc(N)c(C)c1 (centres unmarked) [Example 61] | 100 to 1000
Cc1ncc(-c2ccc3c(c2)COCC3N(C)C(=O)C(=O)Nc2cnc(N)c3c2cnn3C)o1 (centres unmarked) [Example 207] | < 10
Cn1ncc2c(NC(=O)C(=O)N(CC3CC3)C3COCc4cc(C(F)(F)F)ccc43)cnc(N)c21 (centres unmarked) [Example 102] | < 10
CN(C(=O)C(=O)Nc1cnc(N)c2c1cnn2C)C1COc2cc(C3=CCCOC3)ccc21 (centres unmarked) [Example 169] | 10 to 100
CN(C(=O)C(=O)Nc1cnc(N)c2c1cnn2C)C1COc2cc(-c3ccc(C(F)(F)F)cn3)ccc21 (centres unmarked) [Example 177] | 10 to 100
CCC(C)N(Cc1ccc(C(F)(F)F)nn1)C(=O)C(=O)Nc1cnc(N)c(C)c1 (centres unmarked) [Example 65] | 100 to 1000
CN(C(=O)C(=O)Nc1cnc(N)c2c1cnn2C)C1COc2ccccc2C1 (centres unmarked) [Example 234] | 100 to 1000
CCC(C)N(Cc1ccc(S(C)(=O)=O)cn1)C(=O)C(=O)Nc1cnc(N)c(C)c1 (centres unmarked) [Example 85] | 100 to 1000
CN(C(=O)C(=O)Nc1cnc(N)c2c1cnn2C)C1COc2cc(OC(F)(F)F)ccc21 (centres unmarked) [Example 196] | 10 to 100
Cn1ncc2c(NC(=O)C(=O)N(C3CC3)C3COc4cc(C(F)(F)F)ccc43)cnc(N)c21 (centres unmarked) [Example 118] | < 10
COc1ncc(NC(=O)C(=O)N(C)C2COc3cc(C(F)(F)F)ccc32)cc1C(N)=O (centres unmarked) [Example 142] | 1000 to 10000
CCC(C)N(C(=O)C(=O)Nc1cnc(N)c2c1cnn2C)C1COCc2cc(C(F)(F)F)ccc21 (centres unmarked) [Example 131] | 10 to 100

Compound | GI50 [nM]
CN(C(=O)C(=O)Nc1cnc(N)c2c1cnn2C)C1COCc2cc(N3CCOCC3)ccc21 (centres unmarked) [Example 175] | 10 to 100
CCc1ccc2c(c1)OCC2N(C)C(=O)C(=O)Nc1cnc(N)c2c1cnn2C (centres unmarked) [Example 206] | < 10
CCC(C)N(Cc1ccc(OC(C)C)cn1)C(=O)C(=O)Nc1cnc(N)c(C)c1 (centres unmarked) [Example 80] | 10 to 100
CN(C(=O)C(=O)Nc1cnc(N)c2c1cnn2C)C1COc2cc(C3CCOCC3)ccc21 (centres unmarked) [Example 190] | 10 to 100
CN(C(=O)C(=O)Nc1cnc(N)c2c1cnn2C)C1CCOCC1 [Example 120] | 1000 to 10000
CN(C(=O)C(=O)Nc1cnc(N)c2c1cnn2C)C1COCc2cc(-c3ccccc3F)ccc21 (centres unmarked) [Example 215] | < 10
CCC(C)N(Cc1nc(C)cs1)C(=O)C(=O)Nc1cnc(N)c(C)c1 (centres unmarked) [Example 76] | 100 to 1000
CN(C(=O)C(=O)Nc1cnc(N)c2c1cnn2C)C1COCc2nc(-c3ccnn3C3CC3)ccc21 (centres unmarked) [Example 220] | < 10
CCC(C)N(Cc1ccc(C2CC2)cn1)C(=O)C(=O)Nc1cnc(N)c(C)c1 (centres unmarked) [Example 71] | 10 to 100
CCC(C)N(C(=O)C(=O)Nc1cnc(N)c(C)c1)C(C)c1ccc(C(F)(F)F)cn1 (centres unmarked) [Example 74] | 1000 to 10000
CCN(C(=O)C(=O)Nc1cnc(N)c2c1cnn2C)C1COCc2cc(C(F)(F)F)ccc21 (centres unmarked) [Example 101] | < 10
CCC(C)N(Cc1ccc(S(F)(F)(F)(F)F)cc1)C(=O)C(=O)Nc1cnc(N)c(C)c1 (centres unmarked) [Example 69] | 100 to 1000
CCCN(C(=O)C(=O)Nc1cnc(N)c2c1cnn2C)C1COc2cc(C(F)(F)F)ccc21 (centres unmarked) [Example 117] | 10 to 100
CN(C(=O)C(=O)Nc1cnc(N)c2c1cnn2C)C1COCc2cc(-c3cnn4c3CCC4)ccc21 (centres unmarked) [Example 154] | < 10
CN(C(=O)C(=O)Nc1cnc(N)c2c1cnn2C)C1COCc2c1cccc2C(F)(F)F (centres unmarked) [Example 148] | 10 to 100
CCC(C)N(Cc1ccn(C)n1)C(=O)C(=O)Nc1cnc(N)c(C)c1 (centres unmarked) [Example 72] | 1000 to 10000
CCC(C)N(Cc1ccc(C(F)(F)F)cc1)C(=O)C(=O)Nc1cnc(N)c(C)c1 (centres unmarked) [Example 59] | 10 to 100
CN(C(=O)C(=O)Nc1cnc(N)c2c1cnn2C)C1COCc2cc(Cl)c(Cl)cc21 (centres unmarked) [Example 158] | < 10
CN(C(=O)C(=O)Nc1cnc(N)c2c1cnn2C)C1COc2cc(-c3cnn(C)c3)ccc21 (centres unmarked) [Example 140-P1] | < 10
CN(C(=O)C(=O)Nc1cnc(N)c2c1cnn2C)C1CCCOC1 (centres unmarked) [Example 129] | 1000 to 10000

Same assay, conditions: HCT116^MTAP Deletion cells, 10 days incubation, CTG readout; read-out: HCT116^MTAP Deletion GI50

Compound | GI50 [nM]
C[C@H](c1ncccn1)N(Cc1ccc(C(F)(F)F)cn1)C(=O)C(=O)Nc1cnc(N)c2ccncc12 [Example 32] | 100 to 1000
Cc1cc(NC(=O)C(=O)N(Cc2ccc(C3=CCOCC3)nn2)[C@H](C)c2ncccn2)cnc1N [Example 42] | 100 to 1000
CN(C(=O)C(=O)Nc1cnc(N)c2c1cnn2C)C1COCc2cc(-c3cnn(C(F)(F)F)c3)ccc21 (racemic) [compound 231] | < 10
CN(C(=O)C(=O)Nc1cnc(N)c2c1cnn2C)C1COCc2cc(-c3cnn(C4CC4)c3)ccc21 (racemic) [compound 223] | < 10
Cc1cc(NC(=O)C(=O)N(Cc2ccc(C(F)(F)F)cn2)CC2CC2)cnc1N [Example 15] | 10 to 100
CC(C)C(C)N(Cc1ccc(C(F)(F)F)cn1)C(=O)C(=O)Nc1cnc(N)c2c1cnn2C (centres unmarked) [Example 110-P2] | < 10
CCC(C)N(Cc1ccc(C(F)(F)F)cn1)C(=O)C(=O)Nc1cnc(N)c2c1cnn2C (centres unmarked) [Example 52] | < 10
COc1ncc(NC(=O)C(=O)N(Cc2ccc(C(F)(F)F)cn2)[C@H](C)c2ncccn2)cc1C(N)=O [Example 25] | 10 to 100
Cc1cc(NC(=O)C(=O)N(Cc2ccc(C(F)(F)F)cn2)C2CCCC2)cnc1N [Example 11] | 100 to 1000
C[C@H](C1CC1)N(Cc1ccc(C(F)(F)F)cn1)C(=O)C(=O)Nc1cnc(N)c2c1COC2 [Example 39] | 100 to 1000
C[C@H](c1ncccn1)N(Cc1ccc(C(F)(F)F)cn1)C(=O)C(=O)Nc1cnc(N)c2c1CCCC2 [Example 31] | 100 to 1000
CN(C(=O)C(=O)Nc1cnc(N)c2c1cnn2C)C1COCc2cc(-c3ccnn3C)ccc21 (centres unmarked) [Example 137] | < 10
Cc1ncc(-c2ccc3c(n2)COCC3N(C)C(=O)C(=O)Nc2cnc(N)c3c2cnn3C)s1 (racemic) [compound 209] | < 10
Cc1cc(NC(=O)C(=O)N(Cc2ccc(C(F)(F)F)cn2)CC2CCCC2)cnc1N [Example 17] | 10 to 100
Cc1cc(NC(=O)C(=O)N(C)Cc2ccc(C(F)(F)F)cn2)cnc1N [Example 3] | 1000 to 10000
CC1OCC(N(C)C(=O)C(=O)Nc2cnc(N)c3c2cnn3C)c2ccc(C(F)(F)F)cc21 (centres unmarked) [compound 187] | < 10
Cc1cc(NC(=O)C(=O)N(Cc2ccc(C(F)(F)F)cn2)c2cnn(C)c2)cnc1N [Example 18] | 100 to 1000
Cc1cc(C2CC2C(=O)N(Cc2ccc(C(F)(F)F)cn2)[C@H](C)c2ncccn2)cnc1N (some centres unmarked) [Example 7] | > 10000
Cc1cc(NC(=O)C(=O)N(Cc2ccc(C#N)cn2)[C@H](C)c2ncccn2)cnc1N [Example 28] | 1000 to 10000
Cc1cc(NC(=O)C(=O)N(Cc2ccc(C(F)(F)F)cn2)C(C)c2cscn2)cnc1N (single isomer, unassigned) [Example 19-P2] | 10 to 100
CN(C(=O)C(=O)Nc1cnc(N)c2c1cnn2C)C1COCc2cc(C3=CCOCC3)ccc21 (centres unmarked) [Example 132-P2] | 10 to 100
Cc1nc(NC(=O)C(=O)N(Cc2ccc(C(F)(F)F)cn2)[C@H](C)c2ncccn2)cnc1N [Example 27] | 100 to 1000
Cc1ccc2c(c1)OCC2N(C)C(=O)C(=O)Nc1cnc(N)c2c1cnn2C (centres unmarked) [Example 233] | 10 to 100
CN1CC=C(c2ccc3c(c2)COCC3N(C)C(=O)C(=O)Nc2cnc(N)c3c2cnn3C)CC1 (centres unmarked) [Example 160] | 10 to 100
CC1OCc2c(NC(=O)C(=O)N(C)C3COCc4cc(C(F)(F)F)ccc43)cnc(N)c21 (single isomer, unassigned) [Example 146-P2] | 10 to 100
